# Measurements taken from PubChem BioAssay (NCI).
# “And” between values parts separate entries of the source, which are not always exact repeats. Identical values can stand only once.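 All cell lines were grown in 96-well plates and treated with compound for 48 hours. GI50 = concentration required for 50% inhibition of growth. TGI is the concentration that stops growth completely.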
# Columns and labels:
# Assay in all cases: NCI anticancer screen, dose series, 48 h
# [1] = tested on: SNB-75 CNS
# [2] = tested on: SF-295 CNS
# [3] = tested on: MOLT-4 leukemia
# [4] = tested on: UACC-257 melanoma
# [5] = tested on: SW-620 colon
# [6] = tested on: MALME-3M melanoma
# [7] = tested on: UO-31 renal
# [8] = tested on: SNB-78 CNS
# [9] = tested on: RPMI-8226 leukemia
# [10] = tested on: UACC-62 melanoma
# [11] = tested on: NCI-H23 lung
# [12] = tested on: NCI-H460 lung
# [13] = tested on: SNB-19 CNS
# [14] = tested on: NCI-H226 lung
# [15] = tested on: CAKI-1 renal
# [16] = tested on: DMS 273 small cell lung
# [17] = tested on: SK-OV-3 ovarian
# [18] = tested on: SK-MEL-5 melanoma
# [19] = tested on: SF-539 CNS
# [20] = tested on: HL-60(TB) leukemia
# [21] = tested on: ACHN renal
# [22] = tested on: DMS 114 small cell lung
# [23] = tested on: KM12 colon
# [24] = tested on: SF-268 CNS
# [25] = tested on: HCT-15 colon
# [26] = tested on: LOX IMVI melanoma
# [27] = tested on: M14 melanoma
# [28] = tested on: HCC-2998 colon
# [29] = tested on: HT29 colon
# [30] = tested on: COLO 205 colon
# [31] = tested on: OVCAR-5 ovarian
# [32] = tested on: K-562 leukemia
# [33] = tested on: SK-MEL-2 melanoma
# [34] = tested on: HOP-92 NSCLC
# [35] = tested on: HCT-116 colon
# [36] = tested on: SK-MEL-28 melanoma
# [37] = tested on: OVCAR-3 ovarian
# [38] = tested on: EKVX NSCLC
# [39] = tested on: OVCAR-8 ovarian
# [40] = tested on: M19-MEL melanoma
# [41] = tested on: SN12C renal
# [42] = tested on: IGROV1 ovarian
# [43] = tested on: KM20L2 colon
# [44] = tested on: LXFL 529 NSCLC
# [45] = tested on: RXF 393 renal
# [46] = tested on: TK-10 renal
# [47] = tested on: U251 CNS
# [48] = tested on: HOP-18 NSCLC
# [49] = tested on: DLD-1 colon
# [50] = tested on: 786-0 renal
# [51] = tested on: CCRF-CEM leukemia
# [52] = tested on: A498 renal
# [53] = tested on: A549 NSCLC
# [54] = tested on: NCI-H522 lung
# [55] = tested on: OVCAR-4 ovarian
# [56] = tested on: SR leukemia
# [57] = tested on: HOP-62 NSCLC
# [58] = tested on: MCF7 breast
# [59] = tested on: PC-3 prostate
# [60] = tested on: MDA-MB-435
# [61] = tested on: HS 578T breast
# [62] = tested on: DU-145 prostate
# [63] = tested on: NCI/ADR-RES ovarian
# [64] = tested on: MDA-N
# [65] = tested on: MDA-MB-231 breast
# [66] = tested on: BT-549 breast
# [67] = tested on: T-47D breast
smiles,measurement,setting,value
CCOC(=O)/C(O)=C/c1cc(OC)cc(=O)o1,TGI,[1],> 100 µM
same,TGI,[2],> 100 µM
same,TGI,[3],> 100 µM
same,TGI,[4],> 100 µM
same,TGI,[5],> 100 µM
same,TGI,[6],> 100 µM
same,TGI,[7],> 100 µM
same,TGI,[8],> 100 µM
same,TGI,[9],> 100 µM
same,TGI,[10],> 100 µM
same,TGI,[11],> 100 µM
same,TGI,[12],> 100 µM
same,TGI,[13],> 100 µM
same,TGI,[14],> 100 µM
same,TGI,[15],> 100 µM
same,TGI,[16],> 100 µM
same,TGI,[17],> 100 µM
same,TGI,[18],> 100 µM
same,TGI,[19],> 100 µM
same,TGI,[20],> 100 µM
same,TGI,[21],> 100 µM
same,TGI,[22],> 100 µM
same,TGI,[23],> 100 µM
same,TGI,[24],> 100 µM
same,TGI,[25],> 100 µM
same,TGI,[26],> 100 µM
same,TGI,[27],> 100 µM
same,TGI,[28],> 100 µM
same,TGI,[29],> 100 µM
same,TGI,[30],> 100 µM
same,TGI,[31],> 100 µM
same,TGI,[32],> 100 µM
same,TGI,[33],> 100 µM
same,TGI,[34],> 100 µM
same,TGI,[35],> 100 µM
same,TGI,[36],> 100 µM
same,TGI,[37],> 100 µM
same,TGI,[38],> 100 µM
same,TGI,[39],> 100 µM
same,TGI,[40],> 100 µM
same,TGI,[41],> 100 µM
same,TGI,[42],> 100 µM
same,TGI,[43],> 100 µM
same,TGI,[44],> 100 µM
same,TGI,[45],> 100 µM
same,TGI,[46],> 100 µM
same,TGI,[47],> 100 µM
same,TGI,[48],> 100 µM
same,TGI,[49],> 100 µM
same,TGI,[50],> 100 µM
same,TGI,[51],> 100 µM
same,TGI,[52],> 100 µM
same,TGI,[53],> 100 µM
same,TGI,[54],> 100 µM
same,TGI,[55],> 100 µM
CC1CCP(=O)(c2ccccc2)c2ccccc21 (stereo not given),TGI,[1],> 100 µM
same,TGI,[2],> 100 µM
same,TGI,[3],75.4 µM
same,TGI,[4],> 100 µM
same,TGI,[56],96.9 µM
same,TGI,[6],> 100 µM
same,TGI,[7],> 100 µM
same,TGI,[8],> 100 µM
same,TGI,[9],> 100 µM
same,TGI,[10],> 100 µM
same,TGI,[11],> 100 µM
same,TGI,[12],80.3 µM
same,TGI,[13],> 100 µM
same,TGI,[14],> 100 µM
same,TGI,[16],90.2 µM
same,TGI,[17],> 100 µM
same,TGI,[18],> 100 µM
same,TGI,[19],> 100 µM
same,TGI,[20],41.1 µM
same,TGI,[21],> 100 µM
same,TGI,[22],> 100 µM
same,TGI,[23],> 100 µM
same,TGI,[25],> 100 µM
same,TGI,[26],58 µM
same,TGI,[27],> 100 µM
same,TGI,[28],> 100 µM
same,TGI,[57],> 100 µM
same,TGI,[29],> 100 µM
same,TGI,[30],> 100 µM
same,TGI,[31],> 100 µM
same,TGI,[32],62.9 µM
same,TGI,[33],> 100 µM
same,TGI,[35],46.7 µM
same,TGI,[36],> 100 µM
same,TGI,[37],> 100 µM
same,TGI,[38],> 100 µM
same,TGI,[39],> 100 µM
same,TGI,[40],58.5 µM
same,TGI,[41],85.6 µM
same,TGI,[42],> 100 µM
same,TGI,[43],> 100 µM
same,TGI,[44],> 100 µM
same,TGI,[45],> 100 µM
same,TGI,[46],> 100 µM
same,TGI,[47],53.3 µM
same,TGI,[48],> 100 µM
same,TGI,[49],> 100 µM
same,TGI,[50],> 100 µM
same,TGI,[51],> 100 µM
same,TGI,[52],> 100 µM
same,TGI,[53],> 100 µM
same,TGI,[54],> 100 µM
same,TGI,[55],> 100 µM
COc1cc(/C=C\c2ccc(C)cc2)cc(OC)c1OC,GI50,[1],0.0149 µM
same,GI50,[2],0.00818 µM
same,TGI,[58],> 100 µM
same,TGI,[3],0.51 µM
same,GI50,[4],< 0.021 µM
same,TGI,[4],> 76.6 µM
same,TGI,[56],0.0917 µM
same,TGI,[5],> 100 µM
same,TGI,[9],25.2 µM
same,TGI,[11],0.276 µM
same,TGI,[12],0.232 µM
same,GI50,[14],< 0.0134 µM
same,TGI,[14],0.987 µM
same,GI50,[15],0.0235 µM
same,TGI,[15],> 53.8 µM
same,TGI,[16],17.4 µM
same,GI50,[59],0.0173 µM
same,TGI,[59],> 100 µM
same,TGI,[19],0.0218 µM
same,TGI,[20],0.0159 µM
same,TGI,[21],> 100 µM
same,TGI,[22],20.8 µM
same,GI50,[24],< 0.0136 µM
same,TGI,[24],> 63.3 µM
same,TGI,[26],38.7 µM
same,GI50,[28],< 0.0129 µM
same,TGI,[28],0.215 µM and < 0.0303 µM
same,TGI,[57],34.1 µM
same,TGI,[60],0.0672 µM
same,GI50,[61],0.0358 µM
same,TGI,[30],0.144 µM
same,TGI,[62],0.0843 µM
same,TGI,[31],> 91.5 µM
same,TGI,[32],11.7 µM
same,GI50,[33],0.0044 µM
same,TGI,[33],36.5 µM
same,GI50,[34],0.0233 µM
same,TGI,[34],4.13 µM
same,TGI,[63],0.111 µM and 0.158 µM
same,TGI,[37],0.00442 µM
same,TGI,[64],0.00521 µM
same,GI50,[38],< 0.022 µM
same,TGI,[38],> 100 µM
same,GI50,[40],0.0127 µM
same,TGI,[40],> 100 µM
same,TGI,[41],> 69 µM
same,TGI,[42],> 100 µM
same,TGI,[43],0.000535 µM
same,TGI,[44],46.1 µM
same,GI50,[46],25.7 µM
same,TGI,[46],> 100 µM
same,TGI,[47],0.348 µM
same,TGI,[49],> 100 µM
same,TGI,[50],25.2 µM
same,TGI,[51],< 0.044 µM
same,TGI,[53],> 100 µM
same,TGI,[54],0.013 µM
same,TGI,[55],46.5 µM
COc1ccc(-c2oc3c(OC)c(OC)c(OC)c(O)c3c(=O)c2OC)cc1OC,TGI,[1],13.2 µM
same,TGI,[2],> 76.5 µM
same,TGI,[58],> 35.1 µM
same,TGI,[3],51.9 µM
same,TGI,[65],> 100 µM
same,TGI,[4],> 100 µM
same,TGI,[56],45.1 µM
same,TGI,[5],> 66.1 µM
same,TGI,[6],97.1 µM
same,TGI,[7],> 78.7 µM
same,TGI,[9],59.3 µM
same,TGI,[10],> 92 µM
same,TGI,[11],> 83.8 µM
same,TGI,[12],> 83.7 µM
same,TGI,[13],> 100 µM
same,TGI,[66],> 100 µM
same,TGI,[14],> 88.7 µM
same,TGI,[15],> 100 µM
same,TGI,[17],63.8 µM
same,TGI,[59],> 93 µM
same,TGI,[18],41.7 µM
same,TGI,[19],> 71.4 µM
same,TGI,[20],26.1 µM
same,TGI,[21],> 100 µM
same,TGI,[67],25.6 µM
same,TGI,[23],> 100 µM
same,TGI,[24],> 55.1 µM
same,TGI,[25],> 100 µM
same,TGI,[26],> 76.3 µM
same,TGI,[27],> 100 µM
same,TGI,[28],> 67 µM
same,TGI,[57],> 100 µM
same,TGI,[60],32.9 µM
same,TGI,[29],> 78.2 µM
same,TGI,[61],17.3 µM
same,TGI,[30],> 73.1 µM
same,TGI,[62],> 100 µM
same,TGI,[31],> 100 µM
same,TGI,[32],> 54.3 µM
same,TGI,[33],66.2 µM
same,TGI,[34],18.4 µM
same,TGI,[35],> 100 µM
same,TGI,[63],> 72 µM
same,TGI,[36],> 100 µM
same,TGI,[37],> 93.6 µM
same,TGI,[64],30 µM
same,TGI,[38],> 100 µM
same,TGI,[39],> 100 µM
same,TGI,[41],> 100 µM
same,TGI,[42],23.2 µM
same,TGI,[45],87.4 µM
same,TGI,[46],> 100 µM
same,TGI,[47],> 100 µM
same,TGI,[50],> 77.9 µM
same,TGI,[51],> 71.3 µM
same,TGI,[52],> 64.8 µM
same,TGI,[53],> 100 µM
same,TGI,[54],44.6 µM
same,TGI,[55],> 100 µM
